Patent publication US11191790B2, “Biologically pure Faecalibacterium butyricigenerans strain, composition including the same and method for treating ulcerative colitis” (BGI SHENZHEN, priority 2016, dated 2021)

Test system: UC modeled mice (DSS-induced ulcerative colitis)
Experiment: In vivo experiment in DSS-induced UC modeled mice
Set-up: species or system C57bl/6 mice
Method: With administration of AF52-21, saline or a positive drug, the therapeutic effect of Faecalibacterium butyricigenerans AF52-21 on the UC modeled mice was evaluated by observing body weight, mortality, fecal traits, occult/visual blood in stool, colon length, disease and activity index (DAI) and pathological parameters.
8 week-old C57bl/6 mice weighted 21 g±1 g in SPF grade were adaptively fed for one week. Then, 2% sodium dextran sulfate (DSS) was administered to the mice for 7 days to induce the UC modeled mice.
A total of 48 mice were randomly divided into four groups, with 12 mice in each group. The groups were as follows:
Group I: control group—normal mice without DSS induction;
Group II: UC modeled group—saline gavage after DSS induction;
Group III: UC treatment group—AF52-21 treatment after DSS induction;
Group IV: UC treatment group—positive drug (salicylazosulfapyridine, SASP) treatment after DSS induction.
UC modeled group: gavage with saline (0.85% NaCl).
AF52-21-treated group: administration with cultured AF52-21 in a stationary phase in a bacterial concentration of about 10^8 cfu/ml.
SASP-treated group: administration with 0.02 g/mL of aqueous SASP solution.
The mice in all groups were daily observed for food intake, spontaneous activities, body weight, fecal traits and occult/visual blood in stool. After DSS induction for 7 days, mice were treated according to the administration scheme in 4.3 for 2 weeks by daily gavage of 200 μL/mouse. After 14 days, mice in all groups were sacrificed for blood collection, colon collection for photographing and length-measuring, and collection of other organs for weighing. The colon was then stored in paraformaldehyde in a […] refrigerator.
The mice were given individual scores according to body weight, fecal traits and occult/visual blood in stool. The scoring criteria are as follows (Table 4).
The DAI is scored as the sum of the scores for body weight, fecal traits and occult blood/visual blood in stool.

[1] = daily gavage 200 μL/mouse, AF52-21 about 10^8 cfu/ml, SASP 0.02 g/mL
[2] = ratio of organ weight to body weight, x ± SD, after 14 days of treatment
[3] = sum of scores for body weight, fecal traits, occult/visual blood in stool, daily gavage 200 μL/mouse

O=C(O)c1cc(/N=N/c2ccc(S(=O)(=O)Nc3ccccn3)cc2)ccc1O [SASP, salicylazosulfapyridine]
Mice died during the entire experiment (12 mice in each group, 5 mice died in the UC modeled group): 2 mice
Body weight, DSS induction at Day 7 (UC modeled mice, after 7 days 2% DSS, before treatment): 28.52 ± 3.12 g
Body weight, DSS induction at Day 0 (UC modeled mice, before DSS induction and before treatment (baseline of the group)): 30.12 ± 2.25 g
colon length (after 14 days of treatment, UC modeled group 6.11 ± 0.90): 6.54 ± 0.71
Body weight, Treatment at Day 1 [1]: 26.51 ± 3.31 g
Body weight, Treatment at Day 7 [1]: 27.60 ± 3.46 g
Body weight, Treatment at Day 14 [1]: 29.98 ± 3.32 g
Weight gain/decrease rate (decrease rate of body weight, UC modeled group 8 ± 0.8% decrease): 0.4 ± 0.2% (decrease rate)
Colon histopathology (histological sections of mouse intestinal mucosa, FIG. 5, compared with the UC modeled group): reduced thickness of colon wall; and reduced number of inflammatory cells infiltrating in submucosa
Colon index [2]: 9.88 ± 2.76 mg/g
Kidney index [2]: 13.24 ± 1.74 mg/g
Liver index [2]: 41.56 ± 6.04 mg/g
Spleen index [2]: 6.24 ± 3.71 mg/g
Thymus index [2]: 1.10 ± 0.39 mg/g
DAI score, DSS induction for 7 days (sum of scores for body weight, fecal traits, occult/visual blood in stool, before treatment): 7.70 ± 2.85
DAI score, Treatment for 7 days [3]: 5.89 ± 2.21
DAI score, Treatment for 14 days [3]: 3.98 ± 1.38
